# Results from patent US12611416B2, “Methods of treating ischemic stroke at risk for cerebral or cerebellar edema” (REMEDY PHARMACEUTICALS, INC., priority 2024, dated 2026).
# Tested on: large hemispheric infarction (LHI) patients at high risk for cerebral edema
# Experiment: CHARM trial: intravenous glibenclamide in large hemispheric infarction, 90-day mRS shift analysis
# Assay type: in vivo, human
# Details: for common odds ratio (cOR), 90-day mRS: versus placebo; for lesion volume at which cOR crosses the "no effect" point (cOR=1.0): 90-day mRS, mRS 5 and 6 combined
# Excerpt: The CHARM trial evaluated the safety and efficacy of intravenous glibenclamide as a treatment for large hemispheric infarction (LHI) patients at high risk for cerebral edema.
# Patients meeting the following criteria were included: • A clinical diagnosis of acute ischemic stroke in the middle cerebral artery (MCA) territory. • A large hemispheric infarction defined as; lesion volume of 80 to 300 centimeters cubed (cm^3) on magnetic resonance imaging (MRI) diffusion-weighted imaging (DWI), or computed tomography perfusion (CTP), or an Alberta Stroke Program Early CT Score (ASPECTS) of 1 to 5 with involvement of at least 2 defined cortical regions. • Screening National Institutes of Health Stroke Scale (NIHSS) >=10. • At the time of randomization, and in the Investigator's judgement, it must be feasible for study drug treatment infusion to be initiated no later than 10 hours after time of symptom onset, if known, or the time last known normal. • Participants who wake with stroke may be included if neurological and other exclusion criteria are satisfied. The time of stroke onset is to be taken as the midpoint between sleep onset (or last known to be normal) and time of waking. • For participants who receive thrombectomy, inclusion into the study must be based on post-thrombectomy MRI-DWI.
# Patients meeting the following criteria were excluded: • Participant is likely to have supportive care withdrawn on the first day. • Commitment to decompressive craniectomy (DC) prior to enrollment. • Evidence of concurrent infarction in the contralateral hemisphere sufficiently serious so as to affect functional outcome. Pre-Specified Primary Endpoint • Modified Rankin Scale (mRS) score at 90 days analyzed as a shift analysis using a 5-category ordinal scale with 0/1 and 5/6 collapsed. The primary efficacy analysis was pre-specified to be conducted in participants 18-70 years of age (inclusive) who were randomized and receive study treatment (the modified intent-to-treat [mITT] population].
# Five hundred thirty-five subjects were enrolled, with 268 treated with placebo and 267 treated with intravenous glyburide. The mITT population (the primary analysis population), those participants aged […] years who received any study drug, consisted of 431 subjects.
# An interaction term between treatment arm and stroke volume was included in an ordinal logistic regression model with 90-day mRS as the dependent variable. Independent variables included age, sex, baseline NIHSS, world region, tissue plasminogen activator, and thrombectomy.
structure (smiles),measurement,setting,value
COc1ccc(Cl)cc1C(=O)NCCc1ccc(S(=O)(=O)NC(=O)NC2CCCCC2)cc1 [glibenclamide],"common odds ratio (cOR), 90-day mRS","mITT subjects given glyburide in combination with thrombectomy (n=81), 95% CI 1.10-20.1, p=0.037",4.69
same,"lesion volume at which cOR crosses the ""no effect"" point (cOR=1.0)",mITT subjects with CTP or DWI baseline volume,about 140 cm^3
same,"lesion volume at which cOR crosses the ""no effect"" point (cOR=1.0)","mITT subjects with CTP or DWI baseline volume, listed as glyburide",approximately 140 cm^3
same,"common odds ratio (cOR), 90-day mRS","mITT subjects with CTP or DWI baseline volume, lesion volume less than 85 cm^3, ordinal logistic regression, mRS 0/1 and 5/6 collapsed",about 6
same,"common odds ratio (cOR), 90-day mRS","mITT, baseline stroke volume ≤120 cm^3 subgroup, 95% CI 1.07-5.01, p=0.034",2.31
